Like-named read-outs stand apart in the source and are kept apart here.
Legend:
TRH-R [1] = target: T1, TRH-R (Mus musculus, UniProt P21761); assay type: cell-based
T1 construct: expressed in transfected cells; host or cells: Infected with AdCMVmTRHR or transfected with pAdCMVmTRHR: HeLa, GHY, AtT-20, C6, CV1, COS-1 and KB cells

TRH-R [2] = target: T1, TRH-R; assay: Internalization of TRH-Rs (acid-resistant specifically bound [3H]methylTRH); assay type: cell-based; settings: methylTRH-bound receptors
Procedure: (§1) Cells were seeded in wells (3.8 cm^2) pretreated with poly-L-lysine and were incubated in medium supplemented with serum in a humidified atmosphere of 5% CO2. After a minimum of 4 hours, the medium was aspirated and replaced with 0.3 ml of medium without serum, AdCMVmTRHR (300 particles/cell) was added and the cells were incubated at 37° C. After 1 hour, 0.7 to 1.0 ml medium containing serum was added and the incubation continued for 3 to 72 hours. Infection with AdCMVmTRHR was performed in an identical manner for all cell types except that the incubation mediums were different. The mediums were: Dulbecco's modified Eagle's medium supplemented with 5% Nu-Serum for human cervical cancer HeLa cells, monkey kidney Cos-1 and CV-1 cells, and rat glioma C6 cells; Ham's F-10 medium with 15% horse serum and 2.5% fetal bovine serum for rat pituitary tumor GHY cells; Delbecco's modified Eagle's medium with 10% Nu-Serum for mouse pituitary tumor AtT-20 cells; and modified Eagle's medium with 10% fetal bovine serum for human epidermoid KB cells. None of these cell lines express TRH-Rs. Cells were studied 16 to 24 hours after infection with 300 AdCMVmTRHR particles per cell which yielded maximal TRH-R expression.
Internalization was measured as specifically bound [^3H]methylTRH that was resistant to acid wash (Hinkle et al., 1982, J.Biol. Chem., vol. 257, pp. 5462-5470; and Nussenzveig et al., 1993, J.Biol. Chem., vol. 268, pp. 2389-2392, which disclosures are hereby incorporated by reference). Specific acid resistant binding was calculated by subtracting the nonspecifically bound from the [^3H]methylTRH remaining after acid/salt elution.

mouse TRH-R = target: T2, mouse TRH-R (Mus musculus, UniProt P21761); assay: [3H]methylTRH binding to intact AdCMVmTRHR-infected cells; settings: TRH-Rs expressed on cells after infection with AdCMVmTRHR; data not shown; read-out: dissociation constant for methylTRH binding
T2 construct: expressed in transfected cells; host or cells: Infected with AdCMVmTRHR or transfected with pAdCMVmTRHR: HeLa, GHY, AtT-20, C6, CV1, COS-1 and KB cells
T2 sequence (P21761 1-393): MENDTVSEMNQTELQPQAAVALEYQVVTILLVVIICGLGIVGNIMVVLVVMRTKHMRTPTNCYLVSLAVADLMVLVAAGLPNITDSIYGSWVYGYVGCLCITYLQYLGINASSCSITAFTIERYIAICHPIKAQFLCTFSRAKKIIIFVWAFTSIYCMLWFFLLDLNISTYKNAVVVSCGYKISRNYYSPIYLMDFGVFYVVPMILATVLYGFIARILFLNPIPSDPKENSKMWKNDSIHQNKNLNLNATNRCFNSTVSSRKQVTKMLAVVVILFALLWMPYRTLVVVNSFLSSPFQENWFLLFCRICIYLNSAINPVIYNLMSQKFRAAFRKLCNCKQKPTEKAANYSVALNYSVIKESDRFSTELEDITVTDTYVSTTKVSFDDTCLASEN
Procedure: as §1, with “expression. […]” for “expression.”

TRH-R [3] = target: T1, TRH-R; assay: methylTRH stimulation of [3H]IP formation (TRH response); assay type: cell-based; settings: uninfected HeLa, GHY, AtT, C6, CV1 and COS-1 cells
Procedure: as §1, with “Cells were studied 16 to 24 hours after infection with 300 AdCMVmTRHR particles per cell which yielded maximal TRH-R expression.” left out
Infected or transfected cells were labelled for 24 hours with [^3H]myo-inositol, stimulated with TRH or methylTRH in a balanced salt solution containing 10 mM LiCl and [^3H]IPs were measured as described by Imai et al., 1987, Methods. […]

## NC(=O)[C@@H]1CCCN1C(=O)[C@H](Cc1cnc[nH]1)NC(=O)[C@@H]1CCC(=O)N1 [TRH, thyrotropin-releasing hormone]
TRH-R [1]; AdCMVmTRHR-infected AtT-20 cells, 60 minutes 1 μM TRH
  TRH-induced desensitization: decrease of rate of IP formation compared to control: 41±4.7%
TRH-R [1]; AdCMVmTRHR-infected COS-1 cells, 60 minutes 1 μM TRH
  TRH-induced desensitization: did not desensitize
TRH-R [1]; AdCMVmTRHR-infected GHY cells, after 60 minutes of stimulation by 1 μM TRH
  TRH-induced desensitization: decrease of the response to TRH: 49±5.2%
TRH-R [1]; AdCMVmTRHR-infected KB cells, 60 minutes 1 μM TRH
  TRH-induced desensitization: 0±10%

## Cn1cnc(C[C@H](NC(=O)[C@@H]2CCC(=O)N2)C(=O)N2CCC[C@H]2C(N)=O)c1 [methylTRH]
TRH-R [2]; AdCMVmTRHR-infected COS-1 cells (printed COA-1)
  TRH-Rs internalized after 60 minutes: 62±2.1%
TRH-R [2]; AdCMVmTRHR-infected GHY cells
  TRH-Rs internalized after 60 minutes: 64±7.0%
TRH-R [2]; AdCMVmTRHR-infected KB cells
  TRH-Rs internalized after 60 minutes: 71±2.6%
Mouse TRH-R
  Kd: 1.09 ± 0.26 nM
TRH-R [3]
  response to methylTRH (IP formation) in uninfected cells: did not respond

## CCCCCCCCCCCCCC(=O)O[C@@H]1[C@@H](C)[C@@]2(O)[C@@H](C=C(CO)C[C@]3(O)C(=O)C(C)=C[C@@H]23)[C@@H]2C(C)(C)[C@]12OC(C)=O [PMA]
TRH-R [1]; AdCMVmTRHR-infected AtT-20 cells, 0.1 μM PMA 60 minutes prior to TRH
  PMA-induced inhibition of the TRH response: 37±4.0%
TRH-R [1]; AdCMVmTRHR-infected COS-1 cells, 0.1 μM PMA 60 minutes prior to TRH
  PMA-induced inhibition of the TRH response: 37±8.0%
TRH-R [1]; AdCMVmTRHR-infected GHY cells, 0.1 μM PMA added 60 minutes prior to TRH
  PMA-induced inhibition of the TRH response: 25±4.6%
TRH-R [1]; AdCMVmTRHR-infected KB cells, 0.1 μM PMA 60 minutes prior to TRH
  PMA-induced inhibition of the TRH response: 0±10%

— patent US6824770B1, “Adenovirus gene expression system” (Cornell Research Foundation, Inc., priority 1993, dated 2004)
